Read-outs that look alike come from different tables or passages of the source.
Experiments:
α7^Q79G-GlyR^A298G = molecular target: T1, α7^Q79G-GlyR^A298G (Homo sapiens, UniProt P36544, A298G/Q79G); test: Agonist potency (EC50), HEK cells expressing chimeric channel; assay type: cell-based
T1 construct: expressed in transfected cells; host or cells: HEK cells

α7-GlyR = molecular target: T2, α7-GlyR (Homo sapiens, UniProt P36544); test: as above; assay type: cell-based
T2 construct: expressed in transfected cells; host or cells: HEK cells

α7-5HT3 = molecular target: T3, α7-5HT3 (Homo sapiens, UniProt P36544, M226I/T225I); test: as above; assay type: cell-based, human α7 nAChR LBD, murine 5HT3 IPD
T3 construct: expressed in transfected cells; host or cells: HEK cells

α7^L131G-5HT3 HC = test: Agonist potency at chimeric channel (Table 9); assay type: cell-based, human; conditions: α7^L131G-5HT3 HC; reduction
α7^Y115F,G175K-GlyR = molecular target: T4, α7^Y115F,G175K-GlyR (Homo sapiens, UniProt P36544, G175K/Y115F); test: Agonist potency at chimeric channel; assay type: cell-based; conditions: Table 6; read-out: Potency, a7GlyR Y115F G175K
T4 construct: expressed in transfected cells

α7^Q79G,Y115F,G175K-GlyR = molecular target: T5, α7^Q79G,Y115F,G175K-GlyR (Homo sapiens, UniProt P36544, G175K/Q79G/Y115F); test: Agonist potency at chimeric channel; assay type: cell-based; conditions: Table 6; read-out: Potency, a7Gly Q79G G175K Y115F
T5 construct: expressed in transfected cells

α7^G175K-GlyR = molecular target: T6, α7^G175K-GlyR (Homo sapiens, UniProt P36544, G175K); test: Agonist potency at chimeric channel; assay type: cell-based; conditions: Table 6; read-out: Potency, a7GlyR G175K
T6 construct: expressed in transfected cells

α7^W77F,Q79G,G175K-GlyR = molecular target: T7, α7^W77F,Q79G,G175K-GlyR (Homo sapiens, UniProt P36544, G175K/Q79G/W77F); test: Agonist potency at chimeric channel; assay type: cell-based; conditions: Table 6; read-out: Potency, a7GlyR W77F Q79G G175K
T7 construct: expressed in transfected cells

[1] = molecular target: T8, α7GlyR Q79G G175K Y115F R27D E41R (Homo sapiens, UniProt P36544, E41R/G175K/Q79G/R27D/Y115F); test: Agonist potency at chimeric channel; assay type: cell-based; conditions: Table 6; read-out: Potency, a7GlyR Q79G G175K Y115F R27D E41R
T8 construct: expressed in transfected cells

α7^Q79G,G175K-GlyR = molecular target: T9, α7^Q79G,G175K-GlyR (Homo sapiens, UniProt P36544, G175K/Q79G); test: Agonist potency at chimeric channel; assay type: cell-based; conditions: Table 6; read-out: Potency, a7GlyR Q79G G175K
T9 construct: expressed in transfected cells

[2] = HEK cells, Table 3, read-out: α7^Q79G-GlyR^A298G EC50
[3] = HEK cells, Table 3, read-out: α7-GlyR EC50
[4] = HEK cells, Table 3, read-out: α7-5HT3 EC50
[5] = Table 6, read-out: Potency, a7-5HT3

T2 sequence (P36544 with tags, fused parts or gaps): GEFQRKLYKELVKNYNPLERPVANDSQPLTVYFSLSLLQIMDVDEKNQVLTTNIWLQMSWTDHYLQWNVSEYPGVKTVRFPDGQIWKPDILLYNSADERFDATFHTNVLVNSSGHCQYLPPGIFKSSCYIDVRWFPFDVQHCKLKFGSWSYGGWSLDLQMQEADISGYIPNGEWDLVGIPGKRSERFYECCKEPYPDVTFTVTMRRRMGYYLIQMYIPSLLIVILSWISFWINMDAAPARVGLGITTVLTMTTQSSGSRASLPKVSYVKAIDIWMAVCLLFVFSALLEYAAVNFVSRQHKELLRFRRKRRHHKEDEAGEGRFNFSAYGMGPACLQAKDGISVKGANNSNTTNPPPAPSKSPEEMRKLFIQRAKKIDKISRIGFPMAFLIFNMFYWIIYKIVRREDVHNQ
T1 sequence (P36544 with tags, fused parts or gaps Q79G): as the sequence (P36544 with tags, fused parts or gaps) above, with Q57G, A276G counted along it
T3 sequence (P36544 with tags, fused parts or gaps T225I/M226I): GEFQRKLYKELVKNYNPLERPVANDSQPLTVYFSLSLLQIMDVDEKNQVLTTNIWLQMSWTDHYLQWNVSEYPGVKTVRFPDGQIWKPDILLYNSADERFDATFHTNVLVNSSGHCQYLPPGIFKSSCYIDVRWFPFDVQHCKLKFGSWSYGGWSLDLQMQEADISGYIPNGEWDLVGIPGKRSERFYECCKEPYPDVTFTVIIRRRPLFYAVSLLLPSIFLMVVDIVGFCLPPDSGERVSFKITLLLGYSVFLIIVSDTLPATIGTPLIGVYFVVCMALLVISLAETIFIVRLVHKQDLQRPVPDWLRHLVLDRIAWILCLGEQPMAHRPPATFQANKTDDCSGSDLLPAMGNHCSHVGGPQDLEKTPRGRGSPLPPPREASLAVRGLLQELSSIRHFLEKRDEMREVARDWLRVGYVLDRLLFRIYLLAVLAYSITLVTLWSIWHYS
T6 sequence (P36544 with tags, fused parts or gaps G175K): as the sequence (P36544 with tags, fused parts or gaps) above, with G153K counted along it
T5 sequence (P36544 with tags, fused parts or gaps Q79G/Y115F/G175K): as the sequence (P36544 with tags, fused parts or gaps) above, with Q57G, Y93F, G153K counted along it
T8 sequence (P36544 with tags, fused parts or gaps R27D/E41R/Q79G/Y115F/G175K): as the sequence (P36544 with tags, fused parts or gaps) above, with R5D, E19R, Q57G, Y93F, G153K counted along it
T9 sequence (P36544 with tags, fused parts or gaps Q79G/G175K): as the sequence (P36544 with tags, fused parts or gaps) above, with Q57G, G153K counted along it
T4 sequence (P36544 with tags, fused parts or gaps Y115F/G175K): as the sequence (P36544 with tags, fused parts or gaps) above, with Y93F, G153K counted along it
T7 sequence (P36544 with tags, fused parts or gaps W77F/Q79G/G175K): as the sequence (P36544 with tags, fused parts or gaps) above, with W55F, Q57G, G153K counted along it

SMILES | EC50 (α7^Q79G-GlyR^A298G; [2]) [µM] | EC50 (α7-GlyR; [3]) [µM] | EC50 (α7-5HT3; [4]) [µM] | further results
COc1ccc(OC)c(C(=O)NC2C3CCN(CC3)C2Cc2cccnc2)c1 (mixture of isomers) [Compound 0434] | 0.19 | > 10 | > 10 | 
O=C(NC1C2CCN(CC2)C1Cc1cccnc1)c1ccc(C(F)(F)F)cc1 (mixture of isomers) [Compound 0436] | 0.006 | 0.31 | 0.84 | 
CC(=O)OCC[N+](C)(C)C [Acetylcholine] |  |  |  | reduced ACh responsiveness (α7^L131G-5HT3 HC): 5 fold
O=C(NC1CN2CCC1CC2)c1ccc(C(F)(F)F)cn1 (stereo not drawn) [Compound 0295] | 4.6 | > 100 | > 100 | 
O=C(NC1CN2CCC1CC2)c1ccc(C(F)(F)F)nc1 (stereo not drawn) [Compound 0296] | 0.45 |  | > 100 | 
O=C(Nc1ccccc1)NC1CN2CCC1CC2 (stereo not drawn) [Compound 0353] | 0.01 | 0.27 | 0.65 | 
S=C(Nc1ccc(Cl)cc1)NC1CN2CCC1CC2 (stereo not drawn) [Compound 0354] | 0.03 |  |  | EC50 (α7-GlyR): 1 µM; partial agonist activity, α7-5HT3 (α7-5HT3; HEK cells, Table 3): partial; EC50 (α7-5HT3; read-out: α7-5HT3 EC50, HEK cells, Table 3): 1.4 µM
CN1[C@@H]2CCC[C@H]1C[C@@H](NC(=S)c1ccc(Cl)cc1)C2 [Compound 0536] |  | > 100 | > 33 | EC50 (α7^Q79G-GlyR^A298G): 9.1 µM
CN1C2CCC1CC(NC(=S)c1c[nH]c3ccccc13)C2 (stereo not drawn) [Compound 0542] | 0.072 |  | 3.8 | 
CN1C2CCC1CC(NC(=S)c1cn(C)c3ccccc13)C2 (stereo not drawn) [Compound 622] |  |  |  | EC50 (α7^Y115F,G175K-GlyR): 2.5 µM; EC50 (α7^Q79G,Y115F,G175K-GlyR): 0.93 µM; EC50 (α7^G175K-GlyR): 0.87 µM; EC50 (α7^W77F,Q79G,G175K-GlyR): 1.7 µM; EC50 (α7-5HT3; [5]): > 100 µM
O=C(NC1CN2CCC1CC2)c1c[nH]c2ccccc12 (stereo not drawn) [Compound 0676] | 0.002 |  | 0.03 | 
FC(F)(F)Oc1ccc(NC(=S)N[C@H]2CN3CCC2CC3)cc1 [Compound 684] |  |  |  | EC50 [1]: 0.4 µM; EC50 (α7^Q79G,Y115F,G175K-GlyR): 0.79 µM; EC50 (α7^G175K-GlyR): 0.23 µM; EC50 (α7-5HT3; [5]): > 100 µM; EC50 (α7^Q79G,G175K-GlyR): 0.078 µM
